Data: patent publication US20040084867A1, “Individualization of therapy with anticoagulants” (Xanthus Life Sciences, Inc., priority 2002, published 2004)
Like-named read-outs stand apart in the source and are kept apart here. Marks after values point to notes of the source that are not given here.

What was measured:
AAMU-Ab = assay: Competitive antigen ELISA, cross-reactivity of AAMU-Ab; format: binding, rabbit; settings: 0 = absence of inhibition or inhibition no higher than 40% at highest concentration tested (5 × 10^−6 M)
Protocol: (§1) Buffers and water without additives are filtered through millipore filters and kept for 1 week. BSA, antibodies, Tween™ 20 and horse radish peroxidase conjugates are added to these buffers and water just prior to use. Urine samples are usually collected 4 hours after drinking a cup of coffee (instant or brewed with approximately 100 mg of caffeine per cup) and stored at −80° C. The urine samples are diluted 10 times with sodium phosphate buffer (620 mosm, pH 7.50) and are subsequently diluted with water to give- concentrations of AAMU and 1X no higher than 3×10^−6 M in the ELISA. All the pipettings are done with an eight-channel pipette, except those of the antibody and sample solutions. Starting with the last well, 100 μL of a carbonate buffer (100 mM, pH 9.6) containing 2.5 μg mL^−1 antibodies are added to each well. After 90 min. at room temperature, the wells are washed three times with […] of TPB: isotonic sodium phosphate buffer (310 mosm, pH 7.50) containing 0.05% Tween™ 20.
(§2) After the initial wash, unoccupied sites are blocked by incubation for 90 min. at room temperature with 100 μL TBP containing 3% BSA. The wells are washed four times with 100 μL TPB. […] The microplate is gently shaken with an orbital shaker at room temperature for 3-4 hours. The wells are washed three times with 100 μL TPB containing 1% BSA and three times with water containing 0.05% Tween™ 20. To the washed plate is added 150 μL of a substrate buffer composed of citric acid (25 mM) and sodium phosphate dibasic buffer (50 mM, pH 5.0) containing 0.06% hydrogen peroxide and 0.04% o-phenylenediamine hydrochloride.
(§3) Buffers and water without additives were filtered through millipore filters and kept for 1 week. BSA, antibodies, Tween™ 20 and horse radish peroxidase conjugates were added to these buffers and water just prior to use. Urine samples were usually collected 4 hours after drinking a cup of coffee (instant or brewed with approximately 100 mg of caffeine per cup) and stored at −80° C. They were diluted 10 times with sodium phosphate buffer (620 mosm, pH 7.50) and were subsequently diluted with water to give concentrations of AAMU and 1X no higher than 3×10^−6 M in the ELISA. All the pipettings were done with an eight-channel pipette, except those of the antibody and sample solutions. Starting with the last well, 100 μL of a carbonate buffer (100 mM, pH 9.6) containing 2.5 μg mL^−1 antibodies was pipetted. After 90 min. at room temperature, the wells were washed three times with 100 μL of TPB: isotonic sodium phosphate buffer (310 mosm, pH 7.50) containing 0.05% Tween™ 20.
(§4) After the initial wash, unoccupied sites were blocked by incubation for 90 min. at room temperature with 100 μL TBP containing 3% BSA. The wells were washed four times with 100 μL TPB. […] The microplate was gently shaken with an orbital shaker at room temperature for 3-4 hours. The wells were washed three times with 100 μL with TPB containing 1% BSA and three times with water containing 0.05% Tween™ 20. To the washed plate was added 150 μL of a substrate buffer composed of citric acid (25 mM) and sodium phosphate dibasic buffer (50 mM, pH 5.0) containing 0.06% hydrogen peroxide and 0.04% o-phenylenediamine hydrochloride. After 20 min. at room temperature with shaking, the reaction was stopped with 50 μL of 2.5 N HCl.

1X-Ab = assay: Competitive antigen ELISA, cross-reactivity of 1X-Ab; format: binding, rabbit; settings: for % Cross-Reaction, 1X-Ab: competitive antigen ELISA, 0 = absence of inhibition or inhibition no higher than 40% at highest concentration tested (5 × 10^−6 M); for [1X] × 10^6 (M), 1X concentration determined by ELISA: fixed 1X 3×10^−6 M
Protocol: as §1, §2, §3, §4

[1] = system: poor vs. extensive metabolizers; settings: cited from earlier work
CYP2C9 = settings: cited from earlier work
coronary artery patency = settings: Heparin-Aspirin Reperfusion Trial, after TPA; aspirin 80 mg per day; cited from earlier work
[2] = system: slow and fast acetylators; settings: cited from earlier work
[3] = system: individuals with deep vein thrombosis; settings: Hull 1979; proximal DVT, 3 months; heparin 5,000 units sc every 12 hours, sodium warfarin INR 2.5 to 4.5; cited from earlier work
[4] = system: surgical and medical individuals; settings: individuals with hip fracture, begun preoperatively; cited from earlier work
[5] = system: individuals with acute myocardial infarction; settings: cited from earlier work
[6] = system: individuals with acute myocardial infarction; settings: in vivo; cited from earlier work
[7] = system: individuals with evolving myocardial infarction; settings: cited from earlier work; for combined incidence of death or nonfatal hemorrhagic stroke: TPA group vs groups receiving streptokinase
[8] = cited from earlier work
[9] = individuals who died before heparin was started excluded

Compound	% Cross-Reaction, AAMU-Ab (AAMU-Ab)	% Cross-Reaction, 1X-Ab (1X-Ab) [%]	also measured
Cn1c(=O)c2c(ncn2C)n(C)c1=O [1,3,7-Trimethyl Xanthine (Caffeine), 1,3,7-Trimethyl Xanthine]	0%	0	–
Cn1c(=O)c2[nH]cnc2n(C)c1=O [1,3-Dimethyl Xanthine (Theophylline), 1,3-Dimethyl Xanthine]	0%	0.2	–
Cn1c(=O)[nH]c2ncn(C)c2c1=O [1,7-Dimethyl Xanthine (Paraxanthine), 1,7-Dimethyl Xanthine]	0%	0.5	–
Cn1c(=O)[nH]c2[nH]c(=O)n(C)c2c1=O [1,7-Dimethyluric acid]	0%	0	–
Cn1c(=O)[nH]c2nc[nH]c2c1=O [1-Methyl Xanthine (1X), 1-Methyl Xanthine]	0%	100	–
Cn1c(=O)[nH]c2[nH]c(=O)[nH]c2c1=O [1-Methyluric acid]	0%	11	[1X] × 10^6 (M), 1X concentration determined by ELISA (1X-Ab; 1U:1X ratio 0.50): 2.75 × 10^6 (M); [1X] × 10^6 (M), 1X concentration determined by ELISA (1X-Ab; 1U:1X ratio 1.00): 3.25 × 10^6 (M); [1X] × 10^6 (M), 1X concentration determined by ELISA (1X-Ab; 1U:1X ratio 1.50): 3.25 × 10^6 (M); [1X] × 10^6 (M), 1X concentration determined by ELISA (1X-Ab; 1U:1X ratio 2.00): 3.60 × 10^6 (M); apparent increase of 1X concentration (1X-Ab; 1U:1X ratio 2.5): 22%; [1X] × 10^6 (M), 1X concentration determined by ELISA (1X-Ab; 1U:1X ratio 2.50): 3.65 × 10^6 (M); apparent increase of 1X concentration (1X-Ab; 1U:1X ratio 3.0): 32%; [1X] × 10^6 (M), 1X concentration determined by ELISA (1X-Ab; 1U:1X ratio 3.00): 3.95 × 10^6 (M); [1X] × 10^6 (M), 1X concentration determined by ELISA (1X-Ab; 1U:1X ratio 4.00): 4.20 × 10^6 (M); [1X] × 10^6 (M), 1X concentration determined by ELISA (1X-Ab; 1U:1X ratio 5.00): 4.30 × 10^6 (M); [1X] × 10^6 (M), 1X concentration determined by ELISA (1X-Ab; 1U:1X ratio 6.00): 4.50 × 10^6 (M); [1X] × 10^6 (M), 1X concentration determined by ELISA (1X-Ab; 1U:1X ratio 8.00): 4.30 × 10^6 (M)
Cn1cnc2c1c(=O)[nH]c(=O)n2C [3,7-Dimethyl Xanthine (Theobromine), 3,7-Dimethyl Xanthine]	0%	0	–
Cn1c(=O)[nH]c(=O)c2[nH]cnc21 [3-Methyl Xanthine]	0%	0	–
CC(=O)Nc1c(N)n(C)c(=O)n(C)c1=O [5-Acetamino-6-amino-1,3-dimethyluracil]	0%	0	–
CC(=O)Nc1c(N)n(C)c(=O)[nH]c1=O [5-Acetamino-6-amino-1-methyluracil]	100%	0	–
CC(=O)Nc1c(N)[nH]c(=O)[nH]c1=O [5-Acetamino-6-amino-uracil]	0.6%	0	–
Cn1cnc2[nH]c(=O)[nH]c(=O)c21 [7-Methyl Xanthine]	0%	0	–
Cc1nc2[nH]c(=O)[nH]c(=O)c2[nH]1 [8-Methyl Xanthine]	0%	0	–
COc1ccc2c(c1)[C@]13CCCC[C@@H]1[C@H](C2)N(C)CC3 [Dextromethorphan]	–	–	mean performance ±SE ([1]; EMs): 95±0.5%; mean performance ±SE ([1]; PMs): 86±6%
Nc1nc2nc[nH]c2c(=O)[nH]1 [Guanine]	0%	0	–
O=c1[nH]cnc2nc[nH]c12 [Hypoxanthine]	0%	0	–
CC(=O)C[C@@H](c1ccccc1)c1c(O)c2ccccc2oc1=O [S-warfarin]	–	–	↓ in CLpo,u (unbound oral clearance) (CYP2C9; 47 Japanese, an individual with *3/*3): 90% ↓ in CLpo,u for (S)-warfarin in an individual; ↓ in CLpo,u (unbound oral clearance) (CYP2C9; 86 Japanese, 3 individuals with *1/*3): 63% ↓ in CLpo,u for (S)-warfarin in 3 individuals
O=c1cc[nH]c(=O)[nH]1 [Uracil]	0%	0	–
O=c1[nH]c(=O)c2[nH]c(=O)[nH]c2[nH]1 [Uric acid]	0%	0	–
O=c1[nH]c(=O)c2[nH]cnc2[nH]1 [Xanthine]	0^a %	0	–
CC(=O)Oc1ccccc1C(=O)O [aspirin]	–	–	Coronary artery patency at 18 hours (coronary artery patency): 52%
Nc1ccc(S(=O)(=O)c2ccc(N)cc2)cc1 [dapsone]	–	–	adverse reactions ([2]; fast acetylators): 17%; adverse reactions ([2]; slow acetylators): 46%
CC(=O)CC(c1ccccc1)c1c(O)c2ccccc2oc1=O (stereo not drawn) [sodium warfarin]	–	–	rate of recurrent venous thromboembolism [3]: 0%
Dextran	–	–	incidence of thrombosis [4]: 30%
streptokinase	–	–	mortality rate ([5]; all individuals): 9.2%; mortality rate [5, 9]: 6.2%; cerebral hemorrhage rate [6]: 0.24%; stroke rate [6]: 1.04%; combined incidence of death or nonfatal hemorrhagic stroke [7]: 7.5%
tissue plasminogen activator [TPA]	–	–	mortality rate ([5]; all individuals): 8.7%; mortality rate [5, 9]: 5.9%; cerebral hemorrhage rate [6]: 0.66%; excess of episodes of presumed hemorrhagic strokes compared with streptokinase [6]: 4.2 per 1000; excess of strokes compared with streptokinase [6]: 3.5 per 1000; stroke rate [6]: 1.39%; combined incidence of death or nonfatal hemorrhagic stroke [7]: 6.6%; reduction of mortality compared with the streptokinase strategies ([7]; in vivo): 14%
vitamin K	–	–	duration of resistance to warfarin ([8]; doses of 5 mg or more): up to 1 week; time to evident partial reversal of the anticoagulant effect of warfarin ([8]; parenteral administration): ≤ 6 h
